Assay results published in publication PMC11811597, “Phenomics‐Based Discovery of Novel Orthosteric Choline Kinase Inhibitors” (Angewandte Chemie (International Ed. in English), 2025).

Molecular target: T1, EHMT2 (G9a) (Homo sapiens, UniProt Q96KQ7)
T1 sequence (Q96KQ7 1-1210): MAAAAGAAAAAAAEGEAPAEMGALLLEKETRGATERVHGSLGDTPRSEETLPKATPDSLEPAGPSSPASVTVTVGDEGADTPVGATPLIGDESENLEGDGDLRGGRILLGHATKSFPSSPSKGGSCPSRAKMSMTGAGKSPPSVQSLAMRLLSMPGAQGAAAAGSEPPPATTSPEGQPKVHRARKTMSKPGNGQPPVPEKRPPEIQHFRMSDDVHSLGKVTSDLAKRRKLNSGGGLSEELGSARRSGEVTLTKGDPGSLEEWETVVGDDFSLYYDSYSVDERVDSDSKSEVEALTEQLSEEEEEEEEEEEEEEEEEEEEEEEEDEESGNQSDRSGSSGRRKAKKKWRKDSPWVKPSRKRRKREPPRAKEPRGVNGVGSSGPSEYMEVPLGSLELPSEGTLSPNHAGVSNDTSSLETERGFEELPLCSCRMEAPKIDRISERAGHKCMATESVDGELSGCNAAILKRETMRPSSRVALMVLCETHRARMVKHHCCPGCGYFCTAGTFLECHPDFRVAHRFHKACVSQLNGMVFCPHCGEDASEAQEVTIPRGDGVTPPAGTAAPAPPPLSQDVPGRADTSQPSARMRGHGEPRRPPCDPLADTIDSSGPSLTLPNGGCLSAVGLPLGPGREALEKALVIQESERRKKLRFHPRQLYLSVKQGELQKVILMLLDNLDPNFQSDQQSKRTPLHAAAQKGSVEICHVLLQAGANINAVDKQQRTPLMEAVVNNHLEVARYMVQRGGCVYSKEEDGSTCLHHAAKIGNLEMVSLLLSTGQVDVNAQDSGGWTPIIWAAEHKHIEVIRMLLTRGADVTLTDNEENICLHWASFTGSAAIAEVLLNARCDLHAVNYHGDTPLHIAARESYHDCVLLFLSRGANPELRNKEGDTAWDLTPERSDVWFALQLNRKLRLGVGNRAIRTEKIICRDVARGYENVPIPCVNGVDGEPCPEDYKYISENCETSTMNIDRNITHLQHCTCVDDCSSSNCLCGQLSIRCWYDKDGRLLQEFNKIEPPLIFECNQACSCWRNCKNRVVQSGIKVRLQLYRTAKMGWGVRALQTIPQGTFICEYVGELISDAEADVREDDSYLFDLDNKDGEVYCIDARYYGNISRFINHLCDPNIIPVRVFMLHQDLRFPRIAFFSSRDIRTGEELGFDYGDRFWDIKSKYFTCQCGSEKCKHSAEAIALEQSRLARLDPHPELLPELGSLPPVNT
Experiment: Competitive affinity-based chemoproteomics (UNC0965 matrix), MCF7 lysate
Assay type: binding
Set-up: endogenous in cells; host or cells: MCF7 whole cell lysate
Conditions: MCF7 lysates, 20 μM competitor
Description: A-366 and UNC0638 were purchased from Tocris. ARIAD and V-11-07-11 were purchased from Wuxi Apptec. UNC0737 and UNC0965 were synthesised as previously described.[1] Hemicholinium-3 and pyruvate kinase/lactic dehydrogenase enzymes were purchased from Sigma Aldrich. Aqueous and organic solvents were MS-grade and acquired by Sigma Aldrich unless stated otherwise.
MDA-MB-231, MCF7 and HEK293 cells were cultured in DMEM (Gibco, #11965092) supplemented with 10% FBS. K562 were cultured in IMDM (Gibco, #12440053) supplemented with 10% FBS. HepG2 were cultured in MEM (Gibco, #11095080) supplemented with 10 % FBS. […]
cultured in McCoy’s 5A (Sigma, M8403) supplemented with 10 % FBS and 1x GlutaMAX (Gibco, #35050061). Cells were maintained at 37 °C in a humidified 5% CO2 atmosphere. Peripheral blood mononuclear cells (PBMC) were isolated from healthy blood donors by density centrifugation. […]
Cell Titer-Glo® reagent was added to each well and total luminescence readings were performed within 15 min using the PHERAstar FSX (BMG Labtech). […]
Digested samples were analysed by nano-UPLC–MS/MS using a Dionex Ultimate 3000 nano UPLC fitted with an EASY spray column (75 μm × 500 mm, 2 μm particle size, Thermo Scientific), coupled to an Orbitrap Q Exactive instrument. […]

SMILES | competition for EHMT2 (G9a) binding to affinity matrix
COc1cc2c(NC3CCN(C(C)C)CC3)nc(C3CCCCC3)nc2cc1OCCCN1CCCC1 [UNC0638] | strong enrichment and competition
COc1cc2c(N(C)C3CCN(C(C)C)CC3)nc(C3CCCCC3)nc2cc1OCCCN1CCCC1 [UNC0737] | did not ablate binding
